Data reported in the supplement of paper PMC10307832.

Tests used:
Experiment in all cases: relative viability (nuclei count vs DMSO), 5 days (fraction); higher = more cells survive
Sunitinib + AZD7762 = compound: CCN(CC)CCNC(=O)c1c(C)[nH]c(/C=C2\C(=O)Nc3ccc(F)cc32)c1C [Sunitinib] + NC(=O)Nc1cc(-c2cccc(F)c2)sc1C(=O)N[C@H]1CCCNC1 [AZD7762] (partner 0.2 µM)
In short: (§1)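 Relative viability equals treated-well nuclei counts divided by vehicle-well nuclei counts. Counts came from 4× images of lung cancer cell lines grown in 1536-well plates for 5 days after pin-tool dosing on the day after seeding. Dosing used one drug alone or a fixed anchor-drug dose plus five library-drug doses (not always all listed) in √10 steps, and values are medians of duplicate plates.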

Sunitinib + Decitabine = compound: CCN(CC)CCNC(=O)c1c(C)[nH]c(/C=C2\C(=O)Nc3ccc(F)cc32)c1C [Sunitinib] + Nc1ncn([C@H]2C[C@H](O)[C@@H](CO)O2)c(=O)n1 [Decitabine] (partner 2 µM)
In short: as §1

Sunitinib + Lapatinib = compound: CCN(CC)CCNC(=O)c1c(C)[nH]c(/C=C2\C(=O)Nc3ccc(F)cc32)c1C [Sunitinib] + CS(=O)(=O)CCNCc1ccc(-c2ccc3ncnc(Nc4ccc(OCc5cccc(F)c5)c(Cl)c4)c3c2)o1 [Lapatinib] (partner 2 µM)
In short: as §1

Sunitinib + Olaparib = compound: CCN(CC)CCNC(=O)c1c(C)[nH]c(/C=C2\C(=O)Nc3ccc(F)cc32)c1C [Sunitinib] + O=C(c1cc(Cc2n[nH]c(=O)c3ccccc23)ccc1F)N1CCN(C(=O)C2CC2)CC1 [Olaparib] (partner 8 µM)
In short: as §1

| Cell Line | relative viability (Sunitinib + AZD7762; first compound 0.02 µM) | relative viability (Sunitinib + AZD7762; first compound 0.06325 µM) | relative viability (Sunitinib + AZD7762; first compound 0.2 µM) | relative viability (Sunitinib + AZD7762; first compound 0.6325 µM) | relative viability (Sunitinib + AZD7762; first compound 2 µM) | relative viability (Sunitinib + Decitabine; first compound 0.02 µM) | relative viability (Sunitinib + Decitabine; first compound 0.06325 µM) | relative viability (Sunitinib + Decitabine; first compound 0.2 µM) | relative viability (Sunitinib + Decitabine; first compound 0.6325 µM) | relative viability (Sunitinib + Decitabine; first compound 2 µM) | relative viability (Sunitinib + Lapatinib; first compound 0.02 µM) | relative viability (Sunitinib + Lapatinib; first compound 0.06325 µM) | relative viability (Sunitinib + Lapatinib; first compound 0.2 µM) | relative viability (Sunitinib + Lapatinib; first compound 0.6325 µM) | relative viability (Sunitinib + Lapatinib; first compound 2 µM) | relative viability (Sunitinib + Olaparib; first compound 0.02 µM) | relative viability (Sunitinib + Olaparib; first compound 0.06325 µM) | relative viability (Sunitinib + Olaparib; first compound 0.2 µM) | relative viability (Sunitinib + Olaparib; first compound 0.6325 µM) | relative viability (Sunitinib + Olaparib; first compound 2 µM) |
| --- | --- | --- | --- | --- | --- | --- | --- | --- | --- | --- | --- | --- | --- | --- | --- | --- | --- | --- | --- | --- |
| EKVX | 0.755 | 0.783 | 0.735 | 0.688 | 0.716 | 0.352 | 0.384 | 0.45 | 0.382 | 0.412 | 0.213 | 0.227 | 0.193 | 0.233 | 0.241 | 0.941 | 0.991 | 0.952 | 0.957 | 0.97 |
| EMC-BAC-2 | 1.08 | 1.24 | 1.22 | 1.27 | 1.2 | 0.94 | 1.02 | 1.14 | – | 1.04 | 0.839 | 0.959 | 1.01 | – | 0.891 | 0.462 | 0.52 | 0.539 | 0.529 | 0.582 |
| EPLC-272H | 0.26 | 0.298 | 0.301 | 0.175 | 0.229 | 0.346 | 0.408 | 0.389 | 0.368 | 0.312 | 0.837 | 1.02 | 1.14 | 0.937 | 0.915 | 0.764 | 0.998 | 1.01 | 0.746 | 0.388 |
| H3255 | 0.968 | 0.888 | – | 0.871 | 0.871 | 0.567 | 0.671 | 0.607 | 0.651 | 0.529 | 0.231 | 0.313 | 0.227 | 0.259 | 0.236 | 0.541 | 0.605 | 0.6 | 0.593 | 0.56 |
| HARA | 0.355 | 0.337 | 0.582 | 0.29 | 0.301 | 0.506 | 0.604 | 0.539 | 0.563 | 0.586 | 0.767 | 0.813 | 0.881 | 0.729 | 0.801 | 0.718 | 0.966 | 0.801 | 0.786 | 0.7 |
| HCC-15 | 1.17 | 1.28 | 1.37 | 1.09 | 1.41 | 0.639 | 0.829 | 0.708 | 0.671 | 0.677 | 0.855 | 0.9 | 0.91 | 0.826 | 0.829 | 0.762 | 0.742 | 0.807 | 0.768 | 0.625 |
| HCC-44 | 1.05 | 1.08 | 1.01 | 1.01 | 1.05 | 0.931 | 1.04 | 0.99 | 0.951 | 0.949 | 1.06 | 1 | 1.09 | 0.985 | – | 0.958 | 0.97 | 0.979 | 1 | 1.05 |
| HCC-78 | 0.554 | 0.609 | 0.727 | 0.485 | 0.713 | 0.709 | 0.69 | 0.737 | 0.683 | 0.726 | 0.747 | – | 0.767 | – | 0.893 | 0.765 | 0.82 | 0.865 | 0.866 | 0.891 |
